Where two headings read alike, the source gives them in different places.
What was measured:
[1] = system: Key Grass and Sedge Weeds as well as Grass Crops; assay: Post-emergent Test II herbicidal activity (Table 6); type: in vivo; settings: post-emergence, 336 h; for pest or weed control at 70 g/ha: 70 g ai/ha; for pest or weed control at 140 g/ha: 140 g ai/ha
Procedure, shortened: (§1)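 Test species were raised 7–21 d under greenhouse conditions until reaching the first or second true leaf, sprayed with formulated compound at 187 L/ha, and kept subirrigated to avoid wash-off. Fourteen days later, damage was rated visually on a 0–100% scale against untreated plants.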

[2] = system: Key Broadleaf Weed and Crop Species; assay: Post-emergent Test II herbicidal activity (Table 5); type: in vivo; settings: post-emergence, 336 h, 14 days after application; for pest or weed control at 70 g/ha: application rate 70 g ai/ha; for pest or weed control at 140 g/ha: application rate 140 g ai/ha
Procedure, shortened: as §1

[3] = CYPES: yellow nutsedge (Cyperus esculentus), read-out: Visual Growth Reduction (%) 14 Days After Application, CYPES
[4] = DIGSA: crabgrass (Digitaria sanguinalis), read-out: Visual Growth Reduction (%) 14 Days After Application, DIGSA
[5] = ECHCG: barnyardgrass (Echinochloa crus-galli), read-out: Visual Growth Reduction (%) 14 Days After Application, ECHCG
[6] = ORYSA: rice (Oryza sativa), crop, read-out: Visual Growth Reduction (%) 14 Days After Application, ORYSA
[7] = SETFA: giant foxtail (Setaria faberi), read-out: Visual Growth Reduction (%) 14 Days After Application, SETFA
[8] = SORVU: grain sorghum (Sorghum vulgare), read-out: Visual Growth Reduction (%) 14 Days After Application, SORVU
[9] = TRZSS (wheat, Triticum aestivum), crop, read-out: Visual Growth Reduction (%) 14 Days After Application, TRZSS
[10] = ZEAMX: maize, corn (Zea mays), crop, read-out: Visual Growth Reduction (%) 14 Days After Application, ZEAMX
[11] = ABUTH: velvetleaf (Abutilon theophrasti), read-out: Visual Growth Reduction (%) 14 Days After Application, ABUTH
[12] = AMARE: redroot pigweed (Amaranthus retroflexus), read-out: Visual Growth Reduction (%) 14 Days After Application, AMARE
[13] = BRSNN: oilseed-rape, canola (Brassica napus), read-out: Visual Growth Reduction (%) 14 Days After Application, BRSNN
[14] = CHEAL: lambsquarters (Chenopodium album), read-out: Visual Growth Reduction (%) 14 Days After Application, CHEAL
[15] = EPHHL: wild poinsettia (Euphorbia heterophylla), read-out: Visual Growth Reduction (%) 14 Days After Application, EPHHL
[16] = HELAN: sunflower (Helianthus annuus), read-out: Visual Growth Reduction (%) 14 Days After Application, HELAN
[17] = VIOTR: wild pansy (Viola tricolor), read-out: Visual Growth Reduction (%) 14 Days After Application, VIOTR

SMILES: COC(=O)c1nc(-c2ccc(C#N)cc2)c(F)c(N)c1Cl [Compound 142]
- pest or weed control at 70 g/ha [1, 3]: 75 to 84%
- pest or weed control at 140 g/ha [1, 3]: 85 to 94%
- pest or weed control at 70 g/ha [1, 4]: 60 to 74%
- pest or weed control at 140 g/ha [1, 4]: 60 to 74%
- pest or weed control at 70 g/ha [1, 5]: 75 to 84%
- pest or weed control at 140 g/ha [1, 5]: 85 to 94%
- pest or weed control at 70 g/ha [1, 6]: 0 to 29%
- pest or weed control at 140 g/ha [1, 6]: 0 to 29%
- pest or weed control at 70 g/ha [1, 7]: 0 to 29%
- pest or weed control at 140 g/ha [1, 7]: 0 to 29%
- pest or weed control at 70 g/ha [1, 8]: 45 to 59%
- pest or weed control at 140 g/ha [1, 8]: 45 to 59%
- pest or weed control at 70 g/ha [1, 9]: 0 to 29%
- pest or weed control at 140 g/ha [1, 9]: 30 to 44%
- pest or weed control at 70 g/ha [1, 10]: 45 to 59%
- pest or weed control at 140 g/ha [1, 10]: 60 to 74%
- pest or weed control at 70 g/ha [2, 11]: 95 to 100%
- pest or weed control at 140 g/ha [2, 11]: 95 to 100%
- pest or weed control at 70 g/ha [2, 12]: 95 to 100%
- pest or weed control at 140 g/ha [2, 12]: 95 to 100%
- pest or weed control at 70 g/ha [2, 13]: 0 to 29%
- pest or weed control at 140 g/ha [2, 13]: 0 to 29%
- pest or weed control at 70 g/ha [2, 14]: 95 to 100%
- pest or weed control at 140 g/ha [2, 14]: 95 to 100%
- pest or weed control at 70 g/ha [2, 15]: 95 to 100%
- pest or weed control at 140 g/ha [2, 15]: 95 to 100%
- pest or weed control at 70 g/ha [2, 16]: 95 to 100%
- pest or weed control at 140 g/ha [2, 16]: 95 to 100%
- pest or weed control at 70 g/ha [2, 17]: 75 to 84%
- pest or weed control at 140 g/ha [2, 17]: 85 to 94%

SMILES: Nc1c(F)c(-c2ccc(OC(F)F)cc2)nc(C(=O)O)c1Cl [Compound 143]
- pest or weed control at 70 g/ha [1, 3]: 85 to 94%
- pest or weed control at 140 g/ha [1, 3]: 85 to 94%
- pest or weed control at 70 g/ha [1, 4]: 75 to 84%
- pest or weed control at 140 g/ha [1, 4]: 75 to 84%
- pest or weed control at 70 g/ha [1, 5]: 95 to 100%
- pest or weed control at 140 g/ha [1, 5]: 95 to 100%
- pest or weed control at 70 g/ha [1, 6]: 0 to 29%
- pest or weed control at 140 g/ha [1, 6]: 30 to 44%
- pest or weed control at 70 g/ha [1, 7]: 75 to 84%
- pest or weed control at 140 g/ha [1, 7]: 75 to 84%
- pest or weed control at 70 g/ha [1, 8]: 85 to 94%
- pest or weed control at 140 g/ha [1, 8]: 85 to 94%
- pest or weed control at 70 g/ha [1, 9]: 45 to 59%
- pest or weed control at 140 g/ha [1, 9]: 60 to 74%
- pest or weed control at 70 g/ha [1, 10]: 85 to 94%
- pest or weed control at 140 g/ha [1, 10]: 85 to 94%
- pest or weed control at 70 g/ha [2, 11]: 85 to 94%
- pest or weed control at 140 g/ha [2, 11]: 85 to 94%
- pest or weed control at 70 g/ha [2, 12]: 60 to 74%
- pest or weed control at 140 g/ha [2, 12]: 85 to 94%
- pest or weed control at 70 g/ha [2, 13]: 60 to 74%
- pest or weed control at 140 g/ha [2, 13]: 85 to 94%
- pest or weed control at 70 g/ha [2, 14]: 85 to 94%
- pest or weed control at 140 g/ha [2, 14]: 85 to 94%
- pest or weed control at 70 g/ha [2, 15]: 95 to 100%
- pest or weed control at 140 g/ha [2, 15]: 95 to 100%
- pest or weed control at 70 g/ha [2, 16]: 60 to 74%
- pest or weed control at 140 g/ha [2, 16]: 85 to 94%
- pest or weed control at 70 g/ha [2, 17]: 30 to 44%
- pest or weed control at 140 g/ha [2, 17]: 30 to 44%

From patent US9113629B2, “4-amino-6-(4-substituted-phenyl)-picolinates and 6-amino-2-(4-substituted-phenyl)-pyrimidine-4-carboxylates and their use as herbicides” (DOW AGROSCIENCES LLC, priority 2013, dated 2015)
